What was measured:
[1] = test system: patients with severe major depressive disorder (MDD); assay: Open-label study in severe MDD, Part A efficacy (HAM-D); format: in vivo, human; conditions: for patients meeting the HAM-D Response or Remission criteria: Day 15
Method: The study is an open-label, study comprised of two dosing periods, Part A and Part B, during which patients were treated with an oral suspension of Compound 1. Part A was an open-label assessment of two dose levels of Compound 1 (45 mg qHS Cohort 1 and 80 mg qHS Cohort, i.e., once daily administration at bedtime) administered for 7 days inpatient followed by 7 days outpatient. Compound 1 was administered at 4 p.m. on Day 1 in order to collect post-dosing PK samples that could not be collected with qHS dosing.
In Part A, participants were administered daily doses of Compound 1 (45 mg Cohort and 80 mg Cohort) at 4 p.m. on Day 1 and qHS on all other study days for 7 days inpatient followed by 7 days outpatient (with subsequent Cohorts receiving up to 120 mg qHS). Participants checked into the clinic on Day 1. During this period the following assessments were performed: adverse event assessments, vital signs, physical examinations, blood and urine samples for safety assessments, ECGs, C-SSRS assessments, blood samples for PK, and efficacy assessments (HAM-D, MADRS, HAM-A, CGI [CGI-S and CGI-I], PSQI, and SDQ). Baseline assessments occurred on Day 1 prior to administration of study drug. On Day 8, prior to discharge, participants were supplied with sufficient Compound 1 to complete 7 days of dosing.
Patients were administered daily doses of Compound 1 for 7 days inpatient followed by 7 days outpatient.
In the 45 mg Cohort, patients were administered once daily dose of 45 mg of Compound 1 at bedtime for 7 days inpatient followed by once daily dose of 45 mg of Compound 1 at bedtime for 7 days outpatient.
In the 80 mg Cohort, patients were administered once daily dose of 80 mg of Compound 1 at bedtime for 7 days inpatient followed by once daily dose of 80 mg of Compound 1 at bedtime for 7 days outpatient.
Part A: In Part A, HAM-D, MADRS, HAM-A, CGI-S, and CGI-I values were collected in the morning of Days 1, 2, 3, 4, 5, 6, 7, 8, 15, 21 and 28. PSQI and SDQ values will be collected on Days 1, 8, 15, 21 and 28. Part B: In Part B, HAM-D, MADRS, HAM-A, CGI-S, CGI-I, PSQI and SDQ values will be collected on the days described for Part A.
HAM-D Response was defined as a reduction from baseline of ≥50% in total HAM-D score. HAM-D remission was defined as a total HAM-D score of ≤7.
Efficacy analysis: For both parts of the clinical trial, the HAM-D total score and change from baseline values will be summarized by treatment group and time point. In addition, the change from baseline in HAM-D total score will also be analyzed using paired t-tests or similar methods. The null hypothesis of this test is that the mean difference in HAM-D total score between paired observations (i.e., pre- and post-treatment) is zero. Similar analysis methods will be used for all secondary and exploratory efficacy variables.

[2] = Food Effect Cohort (Cohort 4), plasma pharmacokinetics fasted vs high-fat meal; format: in vivo, human
Method: A Food Effect Cohort (Cohort 4) was conducted to assess the effect of food on the PK profile of a single dose of Compound 1 when administered to healthy subjects. The subjects of Cohort 4 were treated with 30 mg of Compound 1 QD.
Cohort 4 subjects received a single 30 mg dose of a Compound 1 suspension on Days 1 and 5. The Day 1 dose was administered after a minimum of 10 hour fasting. No additional fluid intake was allowed until 1 hour after drug administration. A standard meal was given at least 4 hours post-dose. The Day 5 dose was administered following a high-fat, high calorie meal. Participants remained at the clinical site for a total of 8 days to complete pharmacokinetic sampling after the second dose.
Plasma samples were analyzed to determine Compound 1 concentrations using a validated assay method. Pharmacokinetic variables (including but not limited to Cmax, Tmax and AUC(0-last)) were calculated using non-compartmental analysis. PK parameters for Compound 1 were derived from the plasma concentration data using non-compartmental analysis with Phoenix™ WinNonlin® v 8.0 (Pharsight Corporation, USA).
Blood (Cohort 4): Serial blood samples were collected relative to the dosing of Compound 1 at the following time points on both Day 1 and Day 5: Pre-dose (0 hours), 0.25, 0.50, 0.75, 1.00, 1.50, 2.00, 2.50, 3.00, 4.00, 6.00, 8.00, 12.00, 16.00, 24.00, 36.00, 48.00 and 72.00 hours post-dose (±2 min).

harmaline-induced tremor = assay: rHIT model, coadministration of Compound 1 and Compound 2; format: in vivo, rat
Method: Rat Harmaline Induced Tremor (rHIT): The rHIT model was used to assess the impact of the combination of Compound 1 and Compound 2 on reducing the symptoms of tremor. Male SD rats (SLAC, Shanghai, China) weighing about 250 g at the time of testing were housed in a 12:12 light-dark cycle room throughout the study, with the lights on from 5 a.m. to 5 p.m, and fed ad libitum. […]
The rHIT methods described in Example 5 were used. […] After the 20-minute baseline recording, rats were dosed with harmaline and the post-harmaline effect was measured for 20 minutes. […]

[3] = 30 mg single dose, Fasted (Day 1), n = 10, Mean
[4] = 30 mg single dose, Fed (high-fat, high calorie meal), n = 10, Mean

For `COC[C@@]1(O)CC[C@@]2(C)[C@@H](CC[C@@H]3[C@@H]2CC[C@]2(C)[C@@H](C(=O)Cn4ccnc4)CC[C@@H]32)C1` [Compound 1, 3α-Hydroxy-3β-methoxymethyl-21-(1′-imidazolyl)-5α-pregnan-20-one], the “patients meeting the HAM-D Response or Remission criterion” value ([1]; 45 mg Cohort (qHS), Day 7) was 11 of the 13, the “patients meeting the HAM-D Response or Remission criteria” value ([1]; 45 mg Cohort (qHS)) was 8 of the 13 and the “patients meeting the HAM-D Response or Remission criteria” value ([1]; 80 mg Cohort (qHS)) was 6 of the 7. For the same molecule, the “Efficacy (reduction Mean Change from Baseline in HAM-D score)” value ([1]; as monotherapy (no background antidepressant) and in combination with another antidepressant) was “observed”, the “symptoms of MDD” value ([1]; daily dose of 45 mg or 80 mg) was “reduced symptoms of moderate to severe MDD” and the “Efficacy (reduction Mean Change from Baseline in HAM-D score)” value ([1]; patients in first course of antidepressant treatment and patients that failed previous courses) was “observed”. The “t1/2 fasted vs fed conditions” value ([2]; 30 mg dose) was “similar”, the “AUC increase in the fed state versus the fasted state” value ([2]; 30 mg dose group) was 1.17 fold and the “AUC0-t Fed/Fasted Ratio” value ([2]; 30 mg dose, high-fat meal) was 1.17. The “Cmax Fed/Fasted Ratio” value ([2]; 30 mg dose, high-fat meal) was 0.64, the AUC0-last [2, 3] was 0.5977 µg·h/mL and the “AUC %Extrap” value [2, 3] was 0.8702%. The AUCinf [2, 3] was 0.6023 µg·h/mL, the Cmax [2, 3] was 0.08418 µg/mL and the AUC0-last [2, 4] was 0.6299 µg·h/mL. For the same molecule, the “AUC %Extrap” value [2, 4] was 0.6632%, the AUCinf [2, 4] was 0.6342 µg·h/mL and the Cmax [2, 4] was 0.04536 µg/mL. The Tmax ([2]; 30 mg single dose, Fed (high-fat, high calorie meal), n = 10, Median) was 3.25 h, the “Cmax decrease under fed conditions” value ([2]; human, in vivo, 30 mg) was 0.64 fold and the half-life ([2]; human, in vivo, 30 mg single dose, Fasted (Day 1), n = 10, Mean) was 11.2 h. The “effect of Compound 1 on the efficacy of Compound 2 in treating tremor” value (harmaline-induced tremor; Compound 1 3 mg/kg p.o.) was “does not inhibit” and the “effect of the addition of Compound 1 on the tremor-reducing effects of Compound 2” value (harmaline-induced tremor; Compound 1 3 mg/kg p.o. (FIG. 11)) was “did not appear to enhance”.

Source: US20240197756A1, “METHODS OF TREATMENT WITH NEUROACTIVE STEROIDS” (priority 2021, published 2024)
